TD50 and carcinogen call data for eleven compounds are collected here from PubChem BioAssay AID1745844 (Carcinogenic Potency Database (CPDB), 2022).

The structures appear in SMILES notation. The source made the active and inactive calls. No rule for the calls is given here.

For this data set, the system named is rodent lifetime carcinogenesis bioassay, tumor incidence TD50. The data set can be described thus: carcinogenic potency in animals, long-term in vivo studies, CPDB compilation (AID 1745844). Conditions: for carcinogen call: study length 101 weeks.

Regarding `CC(C(O)c1ccccc1)N(C)N=O` (stereo unspecified), the TD50 (rat, strain Sprague-Dawley, males, by gavage, site: any site (literature study), lesion: several types, types named in the paper, dosed 104 weeks, study length 104 weeks) worked out at 40 mg/kg/day; the TD50 (rat, strain Sprague-Dawley, males, by gavage, site: forestomach, lesion: papilloma, dosed 104 weeks, study length 104 weeks) was 239 mg/kg/day; the TD50 (rat, strain Sprague-Dawley, males, by gavage, site: forestomach, lesion: squamous-cell carcinoma, dosed 104 weeks, study length 104 weeks) was 740 mg/kg/day; the TD50 (rat, strain Sprague-Dawley, males, by gavage, site: liver, lesion: hepatocellular carcinoma, dosed 104 weeks, study length 104 weeks) was 138 mg/kg/day; the TD50 (rat, strain Sprague-Dawley, males, by gavage, site: liver, lesion: several types, types named in the paper, dosed 104 weeks, study length 104 weeks) is 95.2 mg/kg/day; the TD50 (rat, strain Sprague-Dawley, males, by gavage, site: lung, lesion: several types, types named in the paper, dosed 104 weeks, study length 104 weeks) was 217 mg/kg/day.

Turning to `COCCl`, the TD50 reads like this: (hamster, strain Syrian Golden, males, inhaled, site: lung, lesion: adenocarcinoma, dosed 113 weeks, study length 124 weeks) 32.9 mg/kg/day; (hamster, strain Syrian Golden, males, inhaled, site: several sites, sites named in the paper, lesion: several types, types named in the paper, dosed 113 weeks, study length 124 weeks) 16.4 mg/kg/day; (rat, strain Sprague-Dawley, males, inhaled, site: several sites, sites named in the paper, lesion: several types, types named in the paper, dosed 113 weeks, study length 122 weeks) 5.5 mg/kg/day.

As to `O=NN(c1ccccc1)c1ccccc1`, the TD50 reads like this: (mouse, strain B6AKF1, females, oral dosing, site: any site (literature study), lesion: several types, types named in the paper, dosed 76 weeks, study length 76 weeks) 3260 mg/kg/day; (mouse, strain B6AKF1, females, oral dosing, site: lung, lesion: adenoma, dosed 76 weeks, study length 76 weeks) 1020 mg/kg/day; (mouse, strain B6C3F1, males, oral dosing, site: any site (literature study), lesion: several types, types named in the paper, dosed 76 weeks, study length 76 weeks) 897 mg/kg/day; (mouse, strain B6C3F1, males, oral dosing, site: liver, lesion: hepatoma, dosed 76 weeks, study length 76 weeks) 385 mg/kg/day; (mouse, strain B6C3F1, males, oral dosing, site: lung, lesion: adenoma, dosed 76 weeks, study length 76 weeks) 9670 mg/kg/day; (rat, strain CB, males, i.p., site: liver, lesion: hepatoma, dosed 26 weeks, study length 100 weeks) 18.9 mg/kg/day (inactive). The TD50 reads like this: (rat, strain Fischer 344, females, in feed, site: any site (literature study), lesion: several types, types named in the paper, dosed 100 weeks, study length 100 weeks) 159 mg/kg/day; (rat, strain Fischer 344, females, in feed, site: urinary bladder, lesion: transitional-cell carcinoma, dosed 100 weeks, study length 100 weeks) 116 mg/kg/day; (rat, strain Fischer 344, males, in feed, site: all sites, lesion: fibroma, dosed 100 weeks, study length 100 weeks) 537 mg/kg/day; (rat, strain Fischer 344, males, in feed, site: any site (literature study), lesion: several types, types named in the paper, dosed 100 weeks, study length 100 weeks) 136000 mg/kg/day; (rat, strain Fischer 344, males, in feed, site: liver, lesion: hepatocellular adenoma + hepatocellular carcinoma + neoplastic nodule, dosed 100 weeks, study length 100 weeks) 5450 mg/kg/day; (rat, strain Fischer 344, males, in feed, site: urinary bladder, lesion: transitional-cell carcinoma, dosed 100 weeks, study length 100 weeks) 299 mg/kg/day. Further, the carcinogen call is, setting by setting: (mouse, strain B6C3F1, females, in feed, site: any site (literature study), lesion: several types, types named in the paper, dosed 98 weeks) “negative (inactive)”; (mouse, strain B6C3F1, males, in feed, site: any site (literature study), lesion: several types, types named in the paper, dosed 101 weeks) “negative (inactive)”.

For the setting “mouse, strain CFLP, males, by gavage, site: any site (literature study), lesion: malignant tumor, dosed 80 weeks, study length 104 weeks”, `CC(=O)OC1CC(C)CCC1C(C)C` (stereo unspecified) (tested in a mixture with another compound) displayed a TD50 of 112 mg/kg/day.

On to `NC(=O)c1cnccn1`, for which the TD50 runs as follows: (mouse, strain B6C3F1, females, in feed, site: any site (literature study), lesion: several types, types named in the paper, dosed 78 weeks, study length 104 weeks) 3430 mg/kg/day; (mouse, strain B6C3F1, females, in feed, site: liver, lesion: hepatocellular adenoma + hepatocellular carcinoma + neoplastic nodule, dosed 78 weeks, study length 104 weeks) 10700 mg/kg/day; (mouse, strain B6C3F1, males, in feed, site: any site (literature study), lesion: several types, types named in the paper, dosed 78 weeks, study length 104 weeks) 546 mg/kg/day (inactive); (mouse, strain B6C3F1, males, in feed, site: liver, lesion: hepatocellular adenoma + hepatocellular carcinoma + neoplastic nodule, dosed 78 weeks, study length 104 weeks) 5180 mg/kg/day; (rat, strain Fischer 344, females, in feed, site: any site (literature study), lesion: several types, types named in the paper, dosed 78 weeks, study length 104 weeks) 182 mg/kg/day; (rat, strain Fischer 344, females, in feed, site: pituitary gland, lesion: chromophobe adenoma + chromophobe carcinoma, dosed 78 weeks, study length 104 weeks) 178 mg/kg/day (inactive). The TD50 (rat, strain Fischer 344, males, in feed, site: any site (literature study), lesion: several types, types named in the paper, dosed 78 weeks, study length 104 weeks) was 284 mg/kg/day (inactive).

`NC(=O)N(CCF)N=O`: the TD50 is, setting by setting: (rat, strain Fischer 344, males, by gavage, site: forestomach, lesion: one or several types, types not named, dosed 40 weeks, study length 104 weeks) 0.125 mg/kg/day; (rat, strain Fischer 344, males, by gavage, site: lung, lesion: several types, types named in the paper, dosed 40 weeks, study length 104 weeks) 0.279 mg/kg/day.

For the compound `O=NN1CCCN(N=O)C1`, the TD50 (rat, strain Sprague-Dawley, males, i.p., site: paranasal sinus, lesion: squamous-cell carcinoma, dosed 104 weeks, study length 104 weeks) was 0.166 mg/kg/day.

Consider `Cc1ncc[nH]1`, for which the TD50 is, setting by setting: (mouse, strain B6C3F1, females, in feed, site: any site (literature study), lesion: several types, types named in the paper, dosed 104 weeks, study length 104 weeks) 729 mg/kg/day; (mouse, strain B6C3F1, females, in feed, site: liver, lesion: hepatocellular adenoma + hepatoblastoma + hepatocellular carcinoma, dosed 104 weeks, study length 104 weeks) 1620 mg/kg/day; (mouse, strain B6C3F1, females, in feed, site: liver, lesion: hepatocellular adenoma, dosed 104 weeks, study length 104 weeks) 1380 mg/kg/day; (mouse, strain B6C3F1, males, in feed, site: any site (literature study), lesion: several types, types named in the paper, dosed 104 weeks, study length 104 weeks) 866 mg/kg/day; (mouse, strain B6C3F1, males, in feed, site: liver + thyroid gland, lesion: hepatocellular adenoma + hepatocellular carcinoma + follicular-cell adenoma, dosed 104 weeks, study length 104 weeks) 378 mg/kg/day; (mouse, strain B6C3F1, males, in feed, site: liver, lesion: hepatocellular adenoma + hepatoblastoma + hepatocellular carcinoma, dosed 104 weeks, study length 104 weeks) 546 mg/kg/day. In addition, the TD50 is 546 mg/kg/day (mouse, strain B6C3F1, males, in feed, site: liver, lesion: hepatocellular adenoma + hepatocellular carcinoma, dosed 104 weeks, study length 104 weeks); 648 mg/kg/day (mouse, strain B6C3F1, males, in feed, site: liver, lesion: hepatocellular adenoma, dosed 104 weeks, study length 104 weeks); 378 mg/kg/day (mouse, strain B6C3F1, males, in feed, site: liver, lesion: hepatocellular carcinoma, dosed 104 weeks, study length 104 weeks); 1810 mg/kg/day (mouse, strain B6C3F1, males, in feed, site: thyroid gland, lesion: follicular-cell adenoma, dosed 104 weeks, study length 104 weeks); 131 mg/kg/day (rat, strain Fischer 344, females, in feed, site: any site (literature study), lesion: several types, types named in the paper, dosed 105 weeks, study length 105 weeks); 2000 mg/kg/day (rat, strain Fischer 344, females, in feed, site: liver, lesion: hepatocellular adenoma + hepatoblastoma + hepatocellular carcinoma, dosed 105 weeks, study length 105 weeks). In addition, the TD50 is 2000 mg/kg/day (rat, strain Fischer 344, females, in feed, site: liver, lesion: hepatocellular adenoma, dosed 105 weeks, study length 105 weeks); 882 mg/kg/day (rat, strain Fischer 344, females, in feed, site: thyroid gland, lesion: follicular-cell adenoma + follicular-cell carcinoma, dosed 105 weeks, study length 105 weeks); 2100 mg/kg/day (rat, strain Fischer 344, females, in feed, site: thyroid gland, lesion: follicular-cell adenoma, dosed 105 weeks, study length 105 weeks); 1380 mg/kg/day (rat, strain Fischer 344, females, in feed, site: thyroid gland, lesion: follicular-cell carcinoma, dosed 105 weeks, study length 105 weeks); 303 mg/kg/day (rat, strain Fischer 344, males, in feed, site: any site (literature study), lesion: several types, types named in the paper, dosed 104 weeks, study length 104 weeks); 663 mg/kg/day (rat, strain Fischer 344, males, in feed, site: liver, lesion: hepatocellular adenoma + hepatoblastoma + hepatocellular carcinoma, dosed 104 weeks, study length 104 weeks). Further, the TD50 by setting is: (rat, strain Fischer 344, males, in feed, site: liver, lesion: hepatocellular adenoma + hepatocellular carcinoma, dosed 104 weeks, study length 104 weeks) 663 mg/kg/day; (rat, strain Fischer 344, males, in feed, site: pancreatic islets, lesion: islet-cell adenoma, dosed 104 weeks, study length 104 weeks) 1010 mg/kg/day; (rat, strain Fischer 344, males, in feed, site: skin, lesion: basal-cell carcinoma + keratoacanthoma + trichoepithelioma, dosed 104 weeks, study length 104 weeks) 624 mg/kg/day; (rat, strain Fischer 344, males, in feed, site: thyroid gland, lesion: follicular-cell adenoma + follicular-cell carcinoma, dosed 104 weeks, study length 104 weeks) 854 mg/kg/day.

Compound `NC1=NCN([C@@H]2O[C@H](CO)[C@@H](O)[C@H]2O)C(=O)N1` gave a TD50 (rat, strain Fischer 344, males, i.p., site: any site (literature study), lesion: one or several types, types not named, dosed 52 weeks, study length 52 weeks) of 20.7 mg/kg/day.

As to `OCCN(CCO)c1nc(-c2cccs2)nc2ccccc12`, for the setting “rat, strain Sprague-Dawley, females, in feed, site: any site (literature study), lesion: several types, types named in the paper, dosed 46 weeks, study length 66 weeks”, the TD50 was determined as 60.1 mg/kg/day.

With `C=COC(N)=O`, the TD50 reads like this: (mouse, strain C57BL/10J, females, i.p., site: liver, lesion: hemangioma, dosed 35 weeks, study length 59 weeks) 0.147 mg/kg/day; (mouse, strain C57BL/10J, females, i.p., site: liver, lesion: hemangiosarcoma, dosed 35 weeks, study length 59 weeks) 0.138 mg/kg/day; (mouse, strain C57BL/10J, females, i.p., site: liver, lesion: hepatocellular adenoma, dosed 35 weeks, study length 59 weeks) 4.99 mg/kg/day; (mouse, strain C57BL/10J, females, i.p., site: liver, lesion: hepatocellular carcinoma, dosed 35 weeks, study length 59 weeks) 0.503 mg/kg/day; (mouse, strain C57BL/10J, males, i.p., site: liver, lesion: hemangioma, dosed 35 weeks, study length 59 weeks) 0.112 mg/kg/day; (mouse, strain C57BL/10J, males, i.p., site: liver, lesion: hemangiosarcoma, dosed 35 weeks, study length 59 weeks) 0.118 mg/kg/day. The TD50 was 2.69 mg/kg/day (mouse, strain C57BL/10J, males, i.p., site: liver, lesion: hepatocellular adenoma, dosed 35 weeks, study length 59 weeks) and 0.629 mg/kg/day (mouse, strain C57BL/10J, males, i.p., site: liver, lesion: hepatocellular carcinoma, dosed 35 weeks, study length 59 weeks).
